The results in this text go back to PubChem BioAssay (NCI).

Common to all, as to test: growth of human tumour cells (NCI), 48 h
The test system of assay [1] is 786-0 renal.
The subject of assay [2] is A549 NSCLC.
Assay [3] deals with EKVX NSCLC.
For assay [4], the system named is HCT-116 colon.
Assay [5] has as its system HOP-92 NSCLC.
The subject of assay [6] is NCI-H522 lung.
For assay [7], the system named is SF-295 CNS.
Assay [8] concerns SK-MEL-28 melanoma.
Assay [9] has as its system HL-60(TB) leukemia.
The test system of assay [10] is SR leukemia.

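A five-concentration, 48-hour dose response in 96-well plates underlies each endpoint, interpolated linearly between surrounding concentrations. At the GI50, growth is halved. TGI is the concentration that stops growth completely.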

Take `Nc1nc2c(ccc3ccccc32)s1`: the GI50 in [1] is over 100 µM; in assay [2], over 100 µM; in [3], 40.5 µM; in assay [4], over 100 µM; in [5], 19.3 µM; in assay [6] it was over 100 µM. In addition, the GI50 in assay [7] and in [8] was over 100 µM throughout. For the same compound, the TGI in assay [1] was over 100 µM; in assay [2] it was over 100 µM; in assay [3], over 100 µM; in assay [4] it was over 100 µM; in [5] it was 85.2 µM; in [6] it was over 100 µM. The TGI in assay [7] and in assay [8] was over 100 µM throughout.
Regarding `C1CC2=C(C1)C1=S(S2)SC2=C1CCC2`, the TGI in [1], in assay [2], in assay [3], in assay [4], in [9] and in [5] was over 100 µM each time. Also, the TGI in [6], in assay [7] and in assay [8] was over 100 µM each time.
As for `COc1cc(NC(C)CCCNC(C)C)c2ncccc2c1OC` (configuration not stated), the GI50 in assay [1] is over 100 µM; in assay [2] it was over 100 µM; in [3], 36.4 µM; in [4], 27.8 µM; in [9], 14.2 µM; in [7], over 100 µM. The GI50 in [8] was over 100 µM; in assay [10], 70.8 µM. Moreover, the TGI is over 100 µM in assay [1]; over 100 µM in assay [2]; over 100 µM in assay [3]; over 100 µM in assay [4]; 72.4 µM in assay [9]; over 100 µM in assay [7]. The TGI in [8] and in assay [10] was over 100 µM throughout.
On to `CCC(C)(O)c1cn(-c2ccc(S(=O)(=O)O)cc2)nn1` (configuration not stated), for which the TGI in [1], in assay [2], in assay [3], in assay [4], in assay [9] and in assay [5] was over 100 µM throughout. The TGI in assay [6], in assay [7] and in assay [8] was over 100 µM each time.
Take `CCC[CH2][Sn]([CH2]CCC)([CH2]CCC)[O]C(=O)C(OC)c1ccccc1` (configuration not stated): the GI50 in assay [1] was 0.142 µM; in [2], 0.117 µM; in assay [3], 0.0277 µM; in assay [4] it was 0.0508 µM; in assay [9], 0.0418 µM; in assay [5] it was 0.0274 µM. The GI50 is 0.0885 µM in assay [6], 0.13 µM in [7] and 0.137 µM in assay [8]. Moreover, the TGI in assay [1] was found to be 0.288 µM; in assay [2], 0.265 µM; in assay [3], 0.228 µM; in [4], 0.182 µM; in assay [9], 0.256 µM; in [5], 0.175 µM. Besides, the TGI is 0.212 µM in assay [6], 0.259 µM in [7] and 0.27 µM in assay [8].
Take `COc1ccc(-c2nc(N)c(C#N)c3c2CCOc2c-3ccc3ccccc23)cc1`: the GI50 in [1] was 17.2 µM; in assay [2], 28 µM; in [4] it was 54.3 µM; in assay [9] it was over 100 µM; in assay [5], 11.8 µM; in assay [6] it was 38.1 µM. In addition, the GI50 in [8] was 12.1 µM. The TGI in assay [1] is 48.3 µM; in assay [2] it was 76.7 µM; in assay [4], over 100 µM; in [9] it was over 100 µM; in [5], 37.9 µM; in assay [6], over 100 µM. Moreover, the TGI in [8] was 79.1 µM.
On to `O=C(NC(=O)c1cn(CCN2CCN(C(=O)NCCCCCCNC(=O)N3CCN(CCn4cc(C(=O)NC(=O)OCc5ccccc5)c(=O)[nH]c4=O)CC3)CC2)c(=O)[nH]c1=O)OCc1ccccc1`, for which the TGI in [1], in assay [2], in assay [3], in assay [4], in assay [9] and in assay [5] was over 100 µM throughout. For the same compound, the TGI in [7] and in [8] was over 100 µM throughout.
As to `NC(=S)N/N=C1/CN(c2ccc(Cl)c(Cl)c2)CC(=O)C1c1nc2ccccc2s1` (configuration not stated), the TGI in assay [1], in [2], in [3], in assay [4], in assay [9] and in assay [5] was over 100 µM each time. For the same compound, the TGI in [6], in assay [7] and in [8] was over 100 µM throughout.
With `COc1ccc2c(c1)CCc1c(CO)c(COC(=O)NC(C)C)n(C)c1-2`, the TGI in assay [1] is over 100 µM; in assay [2], over 78.5 µM; in assay [3], over 100 µM; in assay [4], 11.6 µM; in [9], 5.23 µM; in [5], 22.5 µM. Besides, the TGI worked out at 14.4 µM in [6], 57.7 µM in assay [7] and 28.6 µM in [8].
With `CC(C)(C)c1nc(-c2cccc(NS(=O)(=O)c3c(F)cccc3F)c2F)c(-c2ccnc(N)n2)s1`, the GI50 in assay [1] was 48.9 µM; in assay [2], 26.1 µM; in assay [4], 20.4 µM; in assay [9], 4.68 µM; in assay [5], 35.5 µM; in assay [6], 19 µM. Moreover, the values for the GI50 in assay [7] and in assay [8] were 55.6 µM and under 0.01 µM, respectively. Also, the TGI in [1] was over 100 µM; in assay [2] it was over 100 µM; in assay [4], over 100 µM; in [9] it was 37.4 µM; in assay [5], over 100 µM; in assay [6], 54.7 µM. For the same compound, the TGI in assay [7] and in assay [8] was over 100 µM each time.
In the case of `O/N=C\C(=Nc1ccc(Cc2ccc(N=C(/C=N\O)NO)cc2)cc1)NO`, the TGI in [1] was over 100 µM; in [2], over 100 µM; in assay [3], over 100 µM; in assay [4], over 100 µM; in assay [9], 66.5 µM; in [5] it was over 100 µM. Further, the TGI in assay [6], in assay [7] and in assay [8] was over 100 µM each time.
As to `C=C(CO)CC(/C=C(\C)CC/C=C(\C)CCl)OC(C)=O` (configuration not stated), the TGI in assay [1], in [2], in [3], in [4], in [9] and in assay [5] was over 100 µM in each case. The TGI in assay [6], in assay [7] and in assay [8] was over 100 µM each time.
